# Source: US12018023B2 (NERVIANO MEDICAL SCIENCES S.R.L., priority 2018, dated 2024)
# Tests used:
# [1] = target: T1, IDH1^R132H homodimer enzyme (Homo sapiens, UniProt O75874, R132H); experiment: NADPH depletion assay, IDH1 R132H; type: biochemical
# T1 construct: purchased not specified
# Method: (§1) IDH mutated enzyme activity converting alpha-ketoglutarate to 2-hydroxyglutaric acid is measured using a NADPH depletion assay. In the assay the remaining cofactor is measured at the end of the reaction with the addition of a catalytic excess of diaphorase and resazurin, to generate a fluorescent signal in proportion to the amount of NADPH remaining. IDH1 WT enzyme as well as mutated isoforms IDH1^R132H, IDH1^R132C, and IDH^2R172K enzymes are commercially available proteins (see e.g. Sino Biological, Abcam, Active Motif or Creative BioMart).
# (§2) IDH1^R132H homodimer enzyme are diluted to 8 nM, in 10 μL of Assay Buffer (150 mM NaCl, 50 mM Tris-HCl pH 7.6, 10 mM MgCl2, 0.001% Triton X-100, 4 mM β-mercaptoethanol); 0.2 uL of test compound, previously serially diluted 1 to 3, >10 experimental points from 1 mM in DMSO, is added and the mixture is incubated for 15 minutes at room temperature. The reaction is started with the addition of 10 μL of Substrate Mix (12 uM NADPH, 3.4 mM alpha-ketoglutarate in Assay Buffer) and the mixture is incubated for 60 minutes at room temperature. The reaction is terminated with the addition of 5 μl of Detection Buffer (100 μg/mL diaphorase, 30 μM resazurin, in IX Assay Buffer), and is incubated for 15 minute before reading on a ViewLux as platereader at Ex544/Em590.
# IDH1^R132C = target: T2, IDH1^R132C (Homo sapiens, UniProt O75874, R132C); experiment: NADPH depletion assay, IDH1 R132C; type: biochemical
# T2 construct: purchased not specified
# T2 sequence (O75874 whole entry R132C): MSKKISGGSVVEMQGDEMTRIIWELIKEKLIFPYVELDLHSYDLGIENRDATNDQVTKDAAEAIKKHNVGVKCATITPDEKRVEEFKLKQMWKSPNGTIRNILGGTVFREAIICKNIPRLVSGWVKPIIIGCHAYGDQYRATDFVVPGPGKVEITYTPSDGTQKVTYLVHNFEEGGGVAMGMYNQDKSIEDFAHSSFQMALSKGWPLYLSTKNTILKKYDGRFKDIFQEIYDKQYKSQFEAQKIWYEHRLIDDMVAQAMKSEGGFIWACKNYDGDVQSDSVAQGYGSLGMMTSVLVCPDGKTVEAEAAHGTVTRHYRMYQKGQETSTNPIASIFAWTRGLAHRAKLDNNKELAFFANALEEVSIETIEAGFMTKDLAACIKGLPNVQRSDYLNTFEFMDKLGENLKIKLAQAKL
# Method: as §1, §2
# Compounds are assayed for their activity against IDH1^R132C following the same assay as above with the following modifications: IDH1^R132C and alpha-ketoglutarate final concentrations in the Assay Buffer is 2 nM and 0.14 mM, respectively.
# T1 sequence (O75874 whole entry R132H): as the sequence (O75874 whole entry R132C) above, with C132H counted along it
SMILES,IC50 [1] [nM],IC50 (IDH1^R132C) [nM]
"CCn1c(=O)ccc2cnc(N[C@@H](C)c3ccc(CN4CCN(C(=O)OC(C)(C)C)CC4)cc3)nc21 [cpd 185, tert-butyl 4-(4-{(1S)-1-[(8-ethyl-7-oxo-7,8-dihydropyrido[2,3-d]pyrimidin-2-yl)amino]ethyl}benzyl)piperazine-1-carboxylate]",2370,1270
"COc1ccc([C@H](C)Nc2ncc3ccc(=O)n(CC(C)(C)C)c3n2)cc1 [cpd 33, 8-(2,2-dimethylpropyl)-2-{[(1S)-1-(4-methoxyphenyl)ethyl]amino}pyrido[2,3-d]pyrimidin-7(8H)-one]",461,190
"C[C@H](Nc1ncc2ccc(=O)n(CC(C)(C)C)c2n1)c1ccc(CN2CC(F)(F)C2)cc1 [cpd 147, 2-{[(1S)-1-{4-[(3,3-difluoroazetidin-1-yl)methyl]phenyl}ethyl]amino}-8-(2,2-dimethylpropyl)pyrido[2,3-d]pyrimidin-7(8H)-one]",473,173
"COC(=O)c1ccc([C@H](C)Nc2ncc3ccc(=O)n(C(C)C)c3n2)cc1 [cpd 9, methyl 4-[(1S)-1-{[7-oxo-8-(propan-2-yl)-pyrido[2,3-d]pyrimidin-2-yl]amino}ethyl]benzoate]",1530,604
"C[C@H](Nc1ncc2ccc(=O)n(Cc3c(F)cccc3F)c2n1)c1ccc(C(=O)NC2CCOCC2)cc1 [cpd 78, 4-[(1S)-1-{[8-(2,6-difluorobenzyl)-7-oxo-pyrido[2,3-d]pyrimidin-2-yl]amino}ethyl]-N-(tetrahydro-2H-pyran-4-yl) benzamide]",896,1380
"CC[C@H](Nc1ncc2ccc(=O)n(CC(C)(C)C)c2n1)c1ccccc1 [cpd 70, 8-(2,2-dimethylpropyl)-2-{[(1S)-1-phenylpropyl]amino}pyrido[2,3-d]pyrimidin-7(8H)-one]",478,177
"C[C@H](Nc1ncc2ccc(=O)n(Cc3c(F)cccc3F)c2n1)c1ccc(CO)cc1 [cpd 92, 8-(2,6-difluorobenzyl)-2-({(1S)-1-[4-(hydroxymethyl)phenyl]ethyl}amino)pyrido[2,3-d]pyrimidin-7(8H)-one]",713,715
"C=CC(=O)N1CCN(Cc2ccc([C@H](C)Nc3nc(OCC)c4ccc(=O)n(CC(C)(C)C)c4n3)cc2)CC1 [cpd 201, 2-{[(1S)-1-{4-[(4-acryloylpiperazin-1-yl)methyl]phenyl}ethyl]amino}-8-(2,2-dimethylpropyl)-4-ethoxypyrido[2,3-d]pyrimidin-7(8H)-one]",420,173
"C[C@H](Nc1ncc2ccc(=O)n(CC(C)(C)C(N)=O)c2n1)c1ccc2ccccc2c1 [cpd 122, 2,2-dimethyl-3-[2-{[(1S)-1-(naphthalen-2-yl)ethyl]amino}-7-oxopyrido[2,3-d]pyrimidin-8(7H)-yl]propanamide]",717,386
"CC(C)[C@H](C)n1c(=O)ccc2cnc(N[C@@H](C)c3ccc(-c4ccnc(C(F)(F)F)c4)cn3)nc21 [cpd 196, 8-[(2S)-3-methylbutan-2-yl]-2-({(1S)-1-[2′-(trifluoromethyl)-3,4′-bipyridin-6-yl]ethyl}amino)pyrido[2,3-d]pyrimidin-7(8H)-one]",955,141
"C[C@@H]1CN(Cc2ccc([C@H](C)Nc3ncc4ccc(=O)n([C@@H](C)C(F)(F)F)c4n3)cc2)C[C@H](C)O1 [cpd 164, 2-{[(1S)-1-(4-{[(2R,6S)-2,6-dimethylmorpholin-4-yl]methyl}phenyl)ethyl]amino}-8-[(2S)-1,1,1-trifluoropropan-2-yl]pyrido[2,3-d]pyrimidin-7(8H)-one]",759,406
"COC(=O)c1ccc([C@H](C)Nc2ncc3ccc(=O)n(CC(C)C)c3n2)cc1 [cpd 5, methyl 4-[(1S)-1-{[8-(2-methylpropyl)-7-oxo-pyrido[2,3-d]pyrimidin-2-yl]amino}ethyl]benzoate]",1130,450
"C[C@H](Nc1ncc2ccc(=O)n(CC(C)(C)C)c2n1)c1ccc(CN2CCOCC2)cc1F [cpd 153, 8-(2,2-dimethylpropyl)-2-({(1S)-1-[2-fluoro-4-(morpholin-4-ylmethyl)phenyl]ethyl}amino)pyrido[2,3-d]-pyrimidin-7(8H)-one]",226,41
"C[C@H](Nc1ncc2cc(F)c(=O)n(CC(C)(C)C)c2n1)c1ccc(CN2CCCC(F)(F)C2)cc1 [cpd 57, 2-{(S)-1-[4-(3,3-Difluoro-piperidin-1-ylmethyl)-phenyl]-ethylamino}-8-(2,2-dimethyl-propyl)-6-fluoro-8H-pyrido [2,3-d]pyrimidin-7-one]",543,208
"CCN1CCN(c2ccc([C@H](C)Nc3ncc4ccc(=O)n([C@@H](C)C(C)C)c4n3)cc2)CC1 [cpd 177, 2-({(1S)-1-[4-(4-ethylpiperazin-1-yl)phenyl]ethyl}amino)-8-[(2S)-3-methylbutan-2-yl]pyrido[2,3-d]pyrimidin-7(8H)-one]",978,401
"C[C@H](Nc1ncc2ccc(=O)n(CC(C)(C)C)c2n1)c1ccc(CO)c(F)c1 [cpd 90, 8-(2,2-dimethylpropyl)-2-({(1S)-1-[3-fluoro-4-(hydroxymethyl)phenyl]ethyl}amino)pyrido[2,3-d]pyrimidin-7(8H)-one]",697,391
"C[C@H](Nc1ncc2ccc(=O)n(CC(C)(C)C)c2n1)c1ccc(CN2CCN(C(=O)C3CC3)CC2)cc1 [cpd 158, 2-{[(1S)-1-(4-{[4-(cyclopropylcarbonyl)piperazin-1-yl]methyl}phenyl)ethyl]amino}-8-(2,2-dimethylpropyl) pyrido[2,3-d]pyrimidin-7(8H)-one]",126,40
"C[C@H](Nc1ncc2ccc(=O)n(Cc3ccc(F)cc3F)c2n1)c1ccc(Cl)cc1 [cpd 25, 2-{[(1S)-1-(4-chlorophenyl)ethyl]amino}-8-(2,4-difluorobenzyl)pyrido[2,3-d]pyrimidin-7(8H)-one]",1940,524
"CC(C)[C@H](C)n1c(=O)ccc2cnc(N[C@@H](C)c3ccc(OC4CCNCC4)cc3)nc21 [cpd 155, 8-((S)-1,2-Dimethyl-propyl)-2-{(S)-1-[4-(piperidin-4-yloxy)-phenyl]-ethylamino}-8H-pyrido[2,3-d]pyrimidin-7-one]",455,147
"COC(=O)c1ccc([C@H](C)Nc2ncc3ccc(=O)n(Cc4ccc(F)cc4C(F)(F)F)c3n2)cc1 [cpd 8, methyl-4-[(1S)-1-({8-[4-fluoro-2-(trifluoromethyl)benzyl]-7-oxo-pyrido[2,3-d]pyrimidin-2-yl}amino)ethyl]benzoate]",2440,1380
"CCCC(C)(CO)Cn1c(=O)ccc2cnc(N[C@@H](C)c3ccc(CN4CCC(F)(F)CC4)cc3)nc21 (stereo partly drawn) [cpd 120, 2-{[(1S)-1-{4-[(4,4-difluoropiperidin-1-yl)methyl]phenyl}ethyl]amino}-8-[2-(hydroxymethyl)-2-methylpentyl]pyrido[2,3-d]pyrimidin-7(8H)-one]",221,108
"C[C@H](Nc1ncc2ccc(=O)n(CC(F)(CF)CF)c2n1)c1ccc(CN2CCC(F)(F)CC2)cc1 [cpd 107, 8-[2,3-difluoro-2-(fluoromethyl)propyl]-2-{[(1S)-1-{4-[(4,4-difluoropiperidin-1-yl)methyl]phenyl)ethyl]amino) pyrido[2,3-d]pyrimidin-7(8H)-one]",722,459
"C[C@H](Nc1ncc2ccc(=O)n(CC(C)(C)CO)c2n1)c1ccc(CN2CCC(F)(F)CC2)cc1 [cpd 55, 2-{(S)-1-[4-(4,4-Difluoro-piperidin-1-ylmethyl)-phenyl]-ethylamino}-8-(3-hydroxy-2,2-dimethyl-propyl)-8H-pyrido[2,3-d]pyrimidin-7-one]",137,65
"C=CC(=O)N1CCN(Cc2ccc([C@H](C)Nc3ncc4ccc(=O)n(CCN=[N+]=[N-])c4n3)cc2)CC1 [cpd 182, 2-{[(1S)-1-{4-[(4-acryloylpiperazin-1-yl)methyl]phenyl}ethyl]amino}-8-(2-azidoethyl)pyrido[2,3-d]pyrimidin-7(8H)-one]",103,61
"CCn1c(=O)ccc2cnc(N[C@@H](C)c3ccc(C(=O)N4CCN(C(=O)OC(C)(C)C)CC4)cc3)nc21 [cpd 189, tert-butyl 4-(4-{(1S)-1-[(8-ethyl-7-oxo-7,8-dihydropyrido[2,3-d]pyrimidin-2-yl)amino]ethyl}benzoyl)piperazine-1-carboxylate]",3770,811
"C[C@H](Nc1ncc2ccc(=O)n(Cc3ccc(O)cc3)c2n1)c1ccc(Cl)cc1 [cpd 72, 2-{[(1S)-1-(4-chlorophenyl)ethyl]amino}-8-(4-hydroxybenzyl)pyrido[2,3-d]pyrimidin-7(8H)-one]",2590,1240
"CCCn1c(=O)ccc2cnc(N[C@@H](C)c3ccc(CN4CCN(C(C)=O)CC4)cc3)nc21 [cpd 103, 2-{[(1S)-1-{4-[(4-acetylpiperazin-1-yl)methyl]phenyl}ethyl]amino}-8-propylpyrido[2,3-d]pyrimidin-7(8H)-one]",1590,634
